According to US7244431B2, “Allergy vaccines and their preparation” (priority 2000, dated 2007):

Assays:
[1] = system: IgE antibodies in sera from birch pollen allergic patients; assay: ELISA detection of peptide- and rBet v 1-specific IgE antibodies; assay type: binding, human
Description: Birch pollen allergic patients suffering from allergic rhinoconjunctivitis and/or asthma to birch pollen and related allergens were selected according to case history indicative for seasonal birch pollinosis and characterized by skin prick testing with birch pollen extract and serological CAP RAST (Pharmacia Diagnostics, Uppsala, Sweden) testing. Total IgE levels in the sera were determined by CAP RIST measurements (Pharmacia). […] Sera from 60 birch pollen allergic patients and a non-atopic individual were used for IgE competition studies. The birch pollen allergic patients group consisted of 25 males and 35 females with a mean age of 37 years (ranging from 19-60 years) (Table 2).
Subsequently, plates were incubated with 1:3 diluted sera from 60 birch pollen allergic patients and from a non-atopic individual overnight at 4° C. Bound IgE antibodies were detected with a 1:1000 diluted alkaline-phosphatase-coupled mouse monoclonal anti-human IgE antibody (Pharmingen, San Diego, Calif.).

[2] = system: birch pollen allergic patients; assay: Skin prick testing of allergic patients; assay type: in vivo, human; settings: 100 μg/ml
Description: SPTs were performed on the individuals forearms as described ([…]. et al. (1997) J. Clin Invest. 99, 1673-168; Dreborg S: (1989) J. Am. Acad. DerMatol. 21, 820-821). […] In addition standardized skin prick solutions (birch pollen extract and histamine) (Allergopharma, Reinbek, Germany) were tested. Reactions were recorded 20 minutes after SPT by photography and by transferring the ballpoint pen-surrounded wheal area with a scotch tape to paper.

“MGVFNYETETTSVIPAARLFKAFIC [Peptide P1, Bet v 1-derived synthetic peptide, position aa 1-24, one cysteine added]” was tested, and the “IgE (OD)” value ([1]; serum of NHS, non-allergic control individual) was “— (Dashes indicate reactivities below the cut-off level (OD=0.050))”, the “IgE (OD)” value ([1]; serum of patient 1) was “— (Dashes indicate reactivities below the cut-off level (OD=0.050))” and the “IgE (OD)” value ([1]; serum of patient 2) was “— (Dashes indicate reactivities below the cut-off level (OD=0.050))”. The “IgE (OD)” value ([1]; serum of patient 3) was “— (Dashes indicate reactivities below the cut-off level (OD=0.050))”, the “IgE (OD)” value ([1]; serum of patient 4) was “— (Dashes indicate reactivities below the cut-off level (OD=0.050))” and the “IgE (OD)” value ([1]; serum of patient 5) was “— (Dashes indicate reactivities below the cut-off level (OD=0.050))”. For the same sequence, the “IgE (OD)” value ([1]; serum of patient 6) was “— (Dashes indicate reactivities below the cut-off level (OD=0.050))”, the “IgE (OD)” value ([1]; serum of patient 7) was “— (Dashes indicate reactivities below the cut-off level (OD=0.050))” and the “IgE (OD)” value ([1]; serum of patient 8) was “— (Dashes indicate reactivities below the cut-off level (OD=0.050))”. For the same sequence, the “IgE (OD)” value ([1]; serum of patient 9) was “— (Dashes indicate reactivities below the cut-off level (OD=0.050))”, the “IgE (OD)” value ([1]; serum of patient 10) was “— (Dashes indicate reactivities below the cut-off level (OD=0.050))” and the “IgE (OD)” value ([1]; serum of patient 11) was “— (Dashes indicate reactivities below the cut-off level (OD=0.050))”. The “IgE (OD)” value ([1]; serum of patient 12) was “— (Dashes indicate reactivities below the cut-off level (OD=0.050))”, the “IgE (OD)” value ([1]; serum of patient 13) was “— (Dashes indicate reactivities below the cut-off level (OD=0.050))” and the “IgE (OD)” value ([1]; serum of patient 14) was “— (Dashes indicate reactivities below the cut-off level (OD=0.050))”. The “IgE (OD)” value ([1]; serum of patient 15) was “— (Dashes indicate reactivities below the cut-off level (OD=0.050))”, the “IgE (OD)” value ([1]; serum of patient 16) was “— (Dashes indicate reactivities below the cut-off level (OD=0.050))” and the “IgE (OD)” value ([1]; serum of patient 17) was “— (Dashes indicate reactivities below the cut-off level (OD=0.050))”. For the same sequence, the “IgE (OD)” value ([1]; serum of patient 18) was “— (Dashes indicate reactivities below the cut-off level (OD=0.050))”, the “IgE (OD)” value ([1]; serum of patient 19) was “— (Dashes indicate reactivities below the cut-off level (OD=0.050))” and the “IgE (OD)” value ([1]; serum of patient 20) was “— (Dashes indicate reactivities below the cut-off level (OD=0.050))”. The “IgE (OD)” value ([1]; serum of patient 21) was “— (Dashes indicate reactivities below the cut-off level (OD=0.050))”, the “IgE (OD)” value ([1]; serum of patient 22) was “— (Dashes indicate reactivities below the cut-off level (OD=0.050))” and the “IgE (OD)” value ([1]; serum of patient 23) was “— (Dashes indicate reactivities below the cut-off level (OD=0.050))”. The “IgE (OD)” value ([1]; serum of patient 24) was “— (Dashes indicate reactivities below the cut-off level (OD=0.050))”, the “IgE (OD)” value ([1]; serum of patient 25) was “— (Dashes indicate reactivities below the cut-off level (OD=0.050))” and the “IgE (OD)” value ([1]; serum of patient 26) was “— (Dashes indicate reactivities below the cut-off level (OD=0.050))”. For the same sequence, the “IgE (OD)” value ([1]; serum of patient 27) was “— (Dashes indicate reactivities below the cut-off level (OD=0.050))”, the “IgE (OD)” value ([1]; serum of patient 28) was “— (Dashes indicate reactivities below the cut-off level (OD=0.050))” and the “IgE (OD)” value ([1]; serum of patient 29) was “— (Dashes indicate reactivities below the cut-off level (OD=0.050))”. The “IgE (OD)” value ([1]; serum of patient 30) was “— (Dashes indicate reactivities below the cut-off level (OD=0.050))”, the “IgE (OD)” value ([1]; serum of patient 31) was “— (Dashes indicate reactivities below the cut-off level (OD=0.050))” and the “IgE (OD)” value ([1]; serum of patient 32) was “— (Dashes indicate reactivities below the cut-off level (OD=0.050))”. For the same sequence, the “IgE (OD)” value ([1]; serum of patient 33) was “— (Dashes indicate reactivities below the cut-off level (OD=0.050))”, the “IgE (OD)” value ([1]; serum of patient 34) was “— (Dashes indicate reactivities below the cut-off level (OD=0.050))” and the “IgE (OD)” value ([1]; serum of patient 35) was “— (Dashes indicate reactivities below the cut-off level (OD=0.050))”. The “IgE (OD)” value ([1]; serum of patient 36) was “— (Dashes indicate reactivities below the cut-off level (OD=0.050))”, the “IgE (OD)” value ([1]; serum of patient 37) was “— (Dashes indicate reactivities below the cut-off level (OD=0.050))” and the “IgE (OD)” value ([1]; serum of patient 38) was “— (Dashes indicate reactivities below the cut-off level (OD=0.050))”. The “IgE (OD)” value ([1]; serum of patient 39) was “— (Dashes indicate reactivities below the cut-off level (OD=0.050))”, the “IgE (OD)” value ([1]; serum of patient 40) was “— (Dashes indicate reactivities below the cut-off level (OD=0.050))” and the “IgE (OD)” value ([1]; serum of patient 41) was “— (Dashes indicate reactivities below the cut-off level (OD=0.050))”. The “IgE (OD)” value ([1]; serum of patient 42) was “— (Dashes indicate reactivities below the cut-off level (OD=0.050))”, the “IgE (OD)” value ([1]; serum of patient 43) was “— (Dashes indicate reactivities below the cut-off level (OD=0.050))” and the “IgE (OD)” value ([1]; serum of patient 44) was “— (Dashes indicate reactivities below the cut-off level (OD=0.050))”. For the same sequence, the “IgE (OD)” value ([1]; serum of patient 45) was “— (Dashes indicate reactivities below the cut-off level (OD=0.050))”, the “IgE (OD)” value ([1]; serum of patient 46) was “— (Dashes indicate reactivities below the cut-off level (OD=0.050))” and the “IgE (OD)” value ([1]; serum of patient 47) was “— (Dashes indicate reactivities below the cut-off level (OD=0.050))”. For the same sequence, the “IgE (OD)” value ([1]; serum of patient 48) was “— (Dashes indicate reactivities below the cut-off level (OD=0.050))”, the “IgE (OD)” value ([1]; serum of patient 49) was “— (Dashes indicate reactivities below the cut-off level (OD=0.050))” and the “IgE (OD)” value ([1]; serum of patient 50) was “— (Dashes indicate reactivities below the cut-off level (OD=0.050))”. The “IgE (OD)” value ([1]; serum of patient 51) was “— (Dashes indicate reactivities below the cut-off level (OD=0.050))”, the “IgE (OD)” value ([1]; serum of patient 52) was “— (Dashes indicate reactivities below the cut-off level (OD=0.050))” and the “IgE (OD)” value ([1]; serum of patient 53) was “— (Dashes indicate reactivities below the cut-off level (OD=0.050))”. The “IgE (OD)” value ([1]; serum of patient 54) was “— (Dashes indicate reactivities below the cut-off level (OD=0.050))”, the “IgE (OD)” value ([1]; serum of patient 55) was “— (Dashes indicate reactivities below the cut-off level (OD=0.050))” and the “IgE (OD)” value ([1]; serum of patient 56) was “— (Dashes indicate reactivities below the cut-off level (OD=0.050))”. For the same sequence, the “IgE (OD)” value ([1]; serum of patient 57) was “— (Dashes indicate reactivities below the cut-off level (OD=0.050))”, the “IgE (OD)” value ([1]; serum of patient 58) was “— (Dashes indicate reactivities below the cut-off level (OD=0.050))” and the “IgE (OD)” value ([1]; serum of patient 59) was “— (Dashes indicate reactivities below the cut-off level (OD=0.050))”. For the same sequence, the “IgE (OD)” value ([1]; serum of patient 60) was “— (Dashes indicate reactivities below the cut-off level (OD=0.050))”, the mean wheal diameter ([2]; individual 1) was 0 mm and the mean wheal diameter ([2]; individual 2) was 0 mm. The mean wheal diameter ([2]; individual 3) was 0 mm, the mean wheal diameter ([2]; individual 4) was 0 mm and the mean wheal diameter ([2]; individual 5) was 0 mm. It also gave a mean wheal diameter ([2]; individual 6 (allergic, without birch pollen allergy)) of 0 mm.
